Experimental data as given in patent publication US20070155771A1, “Methods and means for treating protein conformational disorders” (priority 2003, published 2007).

Columns and labels:
human A53T α-synuclein = assay: α-Synuclein degradation in inducible PC12 cell lines (western blot), A53T; assay type: cell-based, rat; conditions: 10 mM 3MA, 200 nM bafilomycin A1; 48 hours
Source text: Human α-synuclein with a HA tag at the N-terminus and a 6His tag at the C-terminus was amplified from pHM6α-synuclein constructs (Furlong, R. A. et a; 1 (2000) Biochem. J. 346, 577581) and inserted into pTRE2 hyg vector (Clontech) using Nhe I/Sal I sites. Constructs were confirmed by sequencing before use. The pTRE2 hygα-synuclein construct and pTettTS (Clontech) were cotransfected into PC12 TetOn cells (Clontech), using Lipofectamine (Invitrogen) and Plus Reagent (Invitrogen). Single colonies were isolated using cloning cylinders (Sigma) and cells were grown and tested for α-synuclein expression upon induction. Cell lines were subjected to a further round of purification from single colonies to ensure that lines were pure. […]
(§1) Each lane was loaded with protein from a similar number of cells, based on cell counting at the time of seeding. Proteins were transferred onto Hybond ECL nitrocellulose membrane (Amersham). α-Synuclein was detected with an antiHA monoclonal antibody (Covance) at 1:1000 dilution with 4-18 hours incubation. HRP conjugated antimouse antibody (Amersham) at 1:2000 dilution was then added to blots and antibody was detected using ECL blotting reagents (Amersham) and Hyperfilm ECL (Amersham). […]

[1] = system: human wild-type α-synuclein; assay: α-Synuclein degradation in inducible PC12 cell lines (western blot), wildtype; assay type: cell-based, rat; conditions: 10 mM 3MA, 200 nM bafilomycin A1; for α-synuclein levels, mitotic wildtype lines: 48 hours; for fold increase in α-synuclein levels (densitometry as a function of tubulin) vs control cells, wildtype: +/− SE, did not reach significance
Source text: (§2) Human α-synuclein with a HA tag at the N-terminus and a 6His tag at the C-terminus was amplified from pHM6α-synuclein constructs (Furlong, R. A. et a; 1 (2000) Biochem. J. 346, 577581) and inserted into pTRE2 hyg vector (Clontech) using Nhe I/Sal I sites. Constructs were confirmed by sequencing before use. The pTRE2 hygα-synuclein construct and pTettTS (Clontech) were cotransfected into PC12 TetOn cells (Clontech), using Lipofectamine (Invitrogen) and Plus Reagent (Invitrogen). Single colonies were isolated using cloning cylinders (Sigma) and cells were grown and tested for α-synuclein expression upon induction. Cell lines were subjected to a further round of purification from single colonies to ensure that lines were pure.
(§3) PC12 cells were grown in Dulbecco's modified eagle's medium (DMEM, Sigma) supplemented with 10% horse serum (Sigma), 5% fetal bovine serum (Sigma), 100 U/ml penicillin/streptomycin, 2 mM L-glutamine, […] G418 (Invitrogen) and […] hygromycin B (Calbiochem) at 37° C., 10% CO2. To induce differentiation, cells were grown in media containing 1% horse serum and 100 ng/ml nerve growth factor (2.5S, Upstate Biotechnology) and incubated for about 5 days. Cells were induced to express synuclein with […] doxycycline (Sigma).
(§4) Cells were induced for 24 hours and then washed twice with media to remove doxycycline. Then cells were incubated in […] media containing either 10 mM 3-methyladenine (3MA, Sigma), 200 nM bafilomycin A1 (Sigma), […] rapamycin (Sigma), […] lactacystin (Sigma), […] epoxomicin (Affinity Research Products Ltd) or carrier controls (water or DMSO (Sigma)). 3MA and lactacystin were made up in water and rapamycin, epoxomicin and bafilomycin were dissolved in DMSO.
(§5) After 24 hours the media was replaced with fresh media plus drug and after a further 24 hours cell pellets were collected and stored at −80° C. until required.
(§6) Cell pellets were collected and stored at −80° C. until needed. Cells were lysed on ice in lysis buffer: 1% TritonX100, 20 mM TRIS pH7.5, 137 mM NaCl, 1 mM EGTA, 10% glycerol, 1.5 mM MgCl2 and protease inhibitor cocktail (Complete, Roche). […]
as §1

human A30P α-synuclein = assay: α-Synuclein degradation in inducible PC12 cell lines (western blot), A30P; assay type: cell-based, rat; conditions: 10 mM 3MA, 200 nM bafilomycin A1; for α-synuclein levels, mitotic A30P lines: 48 hours; for fold increase in α-synuclein levels (densitometry as a function of tubulin) vs control cells, A30P: +/− SE, significant
Source text: as §2, §3, §4, §5, §6, §1

[2] = system: human wild-type, A30P and A53T α-synuclein; assay: α-Synuclein degradation in inducible PC12 cell lines (western blot), all forms; assay type: cell-based; conditions: for α-synuclein levels: induced 24 hours, doxycycline removed, drug 48 hours, cycling and differentiated cells, 0.2 mg/ml rapamycin, 10 mM lactacystin, 10 mM epoxomicin [sic]
Source text: as §2, §3, §4, §5
Cell pellets were collected and stored at −80° C. until needed. Cells were lysed on ice in lysis buffer: 1% TritonX100, 20 mM TRIS pH7.5, 137 mM NaCl, 1 mM EGTA, 10% glycerol, 1.5 mM MgCl2 and protease inhibitor cocktail (Complete, Roche).
Samples were then mixed with loading buffer: 62.5 mM TRIS pH 6.8, 2% SDS, 10% glycerol, 0.05% bromophenol blue, 100 mM dithiothreitol and 700 mM β-mercaptoethanol and boiled before loading onto 14% denaturing polyacrylamide gels.
Each lane was loaded with protein from a similar number of cells, based on cell counting at the time of seeding. Proteins were transferred onto Hybond ECL nitrocellulose membrane (Amersham). α-Synuclein was detected with an antiHA monoclonal antibody (Covance) at 1:1000 dilution with 4-18 hours incubation. HRP conjugated antimouse antibody (Amersham) at 1:2000 dilution was then added to blots and antibody was detected using ECL blotting reagents (Amersham) and Hyperfilm ECL (Amersham). Blots were stripped and then reprobed for α-tubulin (Sigma) at 1:1000 dilution.
PC12 cell lines as described above (i.e. mitotic and neuronally differentiated wild-type, A53T and A30P PC12 lines) were induced for 24 hours, then doxycycline was removed and the drugs were added for 48 hours. The trends we observed were similar in cells treated with drugs for 24 and 72 hours.

[3] = system: LC3-stained vesicles (autophagosomes); assay: Number of LC3-stained vesicles (autophagic activity); assay type: cell-based; conditions: rapamycin treatment
Source text: Immunocytochemistry was done in COS-7 cells fixed with 4% paraformaldehyde (Sigma). Free-floating mouse brain sections from HD transgenic and control brains and paraffin-embedded HD grade III and control brain slices spanning the caudate and putamen regions were used for histochemical analysis. Primary antibodies used: anti-mTOR, anti-phospho-mTOR (Ser2448), anti-4E-BP1, anti-phospho-S6 (Ser235/236) (Cell signalling technologies), anti-LC3 (kind gift from Dr Yoshimori) and anti-huntingtin and anti-ubiquitin (both from Chemicon). Immunohistochemistry was performed by standard fluorescence methods or peroxidase labelling using Vectastain Avidin: Biotinylated enzyme Complex (ABC) kit. Relevant negative controls without the primary antibodies were performed alongside all the experiments.
LC3-II is a form of microtubule associated protein-1 light chain-3 (MAP-LC3), which is associated with mammalian autophagosomes (Kabeya, Y. et al. Embo J 19, 5720-5728 (2000)). […] While this effect was subtle, it was consistent and reproducible in four independent experiments. In addition, LC3-II increased upon induction of mutant huntingtin fragment expression in the stable PC12 cells, while no difference was seen upon induction of the Q23 cells. Another way one can score autophagic activity is to assess the number of LC3-stained vesicles.

[4] = system: Drosophila HD model expressing the first 171 residues of huntingtin with 120 glutamines (120Q) in photoreceptors; assay: Drosophila HD model, pseudopupil analysis of photoreceptor neurodegeneration; assay type: in vivo
Experimental: A Drosophila line y; w; gmr-Q120 was crossed to w; iso2; iso3 to obtain progeny heterozygous for the transgene gmr-Q120. Flies were allowed to mate on normal food for 2-3 days and then transferred to food containing 1 μM rapamycin (Sigma) or DMSO. After eclosion, flies were placed on food containing 1 μM rapamycin or DMSO. Flies were transferred to newly prepared food every day.
Pseudopupil analysis: Adult male flies were decapitated and the head was mounted onto a microscope slide using nail polish. Analysis was performed with an optical microscope using a 60× objective with the observer blinded to the identity of the slides. Approximately 75 ommatidia were evaluated for each group (approx. 15 ommatidia in 5 individuals). Each experiment was done twice. The frequency of ommatidia with different numbers of visible rhabdomeres was based on all visible photoreceptor neurons, irrespective of their shape or brightness. Flies were raised at 25° C. with 12/12-h light/dark-cycle, 70% humidity.
A Drosophila HD model that expresses the first 171 residues of huntingtin with 120 glutamines (120Q) in photoreceptors (Jackson, G. R., et al. Neuron 21, 633-642 (1998)) was used to test whether long-term mTOR inhibition with rapamycin would have beneficial effects in vivo. The mutant flies show photoreceptor neurodegeneration, a phenotype that is easily quantifiable using the pseudopupil technique (Franceschini, N. & Kirschfeld K. Kybernetik 9, 159-182 (1971)). No degeneration is seen in flies expressing analogous constructs with 20Q (wild-type transgenics). The compound eye of Drosophila comprises many ommatidia. An ommatidium normally contains eight photoreceptor neurons with light gathering parts called rhabdomeres, seven of which can be easily visualized using the pseudopupil technique. The number of visible rhabdomeres in each ommatidium decreases as a function of time when there is photoreceptor neurodegeneration, like in the 120Q fly lines.

| Compound | α-synuclein levels in the A53T lines (human A53T α-synuclein) | α-synuclein levels, mitotic wildtype lines [1] | fold increase in α-synuclein levels (densitometry as a function of tubulin) vs control cells, wildtype [1] [fold] | α-synuclein levels, mitotic A30P lines (human A30P α-synuclein) | fold increase in α-synuclein levels (densitometry as a function of tubulin) vs control cells, A30P (human A30P α-synuclein) [fold] | α-synuclein levels [2] | cell death or overt aggregate formation ([2]; proteasome inhibitors for 48 hours) | number of LC3-stained vesicles [3] | 120Q-induced photoreceptor degeneration ([4]; 1 μM rapamycin in food from larval stage into adulthood, vs DMSO) | number of visible rhabdomeres per ommatidium ([4]; 1 μM rapamycin in food, two and three days after eclosion, p<0.0001) | frequency of ommatidia with seven rhabdomeres ([4]; HD 120Q flies, 2 and 3 days post-eclosion) |
| --- | --- | --- | --- | --- | --- | --- | --- | --- | --- | --- | --- |
| Cn1cnc(N)c2ncnc1-2 [3-MA, 3-methyl adenine] | obvious increase | slight changes, at best | 1.48 | slight changes, at best | 1.13 | – | – | – | – | – | – |
| CO/C1=C\C(C)=C\[C@@H](C)[C@@H](O)[C@@H](C)C/C(C)=C/C=C/[C@H](OC)[C@@H]([C@@H](C)[C@@H](O)[C@H](C)[C@@]2(O)C[C@@H](O)[C@H](C)[C@@H](C(C)C)O2)OC1=O [BafA1, Bafilomycin A1] | obvious increase | slight changes, at best | 1.12 | slight changes, at best | 1.19 | – | – | – | – | – | – |
| CC[C@H](C)[C@H](NC(=O)[C@H]([C@@H](C)CC)N(C)C(C)=O)C(=O)N[C@H](C(=O)N[C@@H](CC(C)C)C(=O)[C@@]1(C)CO1)[C@@H](C)O [epoxomicin] | – | – | – | – | – | increase | did not cause increased cell death or overt aggregate formation | – | – | – | – |
| rapamycin | – | – | – | – | – | significantly reduce | – | marked increase | dramatically rescued | significantly increased | dramatically increases |
